Marks after values point to notes of the source that are not given here.
Tests used:
[1] = system: serine 40 (S40)-phosphorylated tyrosine hydroxylase; assay: Striatal tyrosine hydroxylase S40 phosphorylation state (CNSProfile immunoblotting); format: in vivo; settings: mice, acute; ITI-007 3 mg/kg p.o., clozapine 5 i.p., aripiprazole 10 p.o., olanzapine 1 i.p., risperidone 3 p.o., haloperidol 1 i.p.; over 60 min; vs vehicle
Procedure: The effect of the selected compounds on the phosphorylation state of tyrosine hydroxylase (TH) was measured and quantitated as an indicator of the potential of each compound to perturb presynaptic dopamine synthesis in striatum. […] This technique preserves in vivo levels of brain protein phosphorylation ([Zhu et al. 2010]). […] Small aliquots of the homogenate were retained for protein determination by the bicinchoninic acid (BCA) protein assay method (Pierce Chemical Co., Rockford, IL). […] Immunoblotting was carried out using a phos-phorylation state-specific polyclonal antibody raised against […] (S40)-phosphorylated tyrosine hydroxylase (Chemicon, Temecula, CA) and a pan-TH monoclonal antibody for measuring the total protein levels (BD Biosciences, San Jose, CA). […] Antibody binding was detected and quantitated using a LiCor Odyssey infrared fluorescent detection system. Phosphorylation at each site detected by phospho-specific antibodies was quantified, normalized to total levels of the protein (non-phosphorylated), and expressed as percent±SEM of the level of phosphorylation in vehicle-treated control mice (N=6).

[2] = system: striatal dopamine metabolism; assay: Striatal dopamine metabolism (HPLC-EC of DA, DOPAC, HVA); format: in vivo, mice; settings: for DOPAC/DA, chronic (21 day) dosing, mean / HVA/DA, chronic (21 day) dosing, mean: striatum 2 h after last dose; for DOPAC/DA, acute (2 h) dosing, mean / HVA/DA, acute (2 h) dosing, mean: striatum 2 h after dose
Procedure: Measurements of tissue dopamine levels were performed at CDC-NIOSH. […] Striatum was rapidly dissected from each mouse brain, weighed, and placed into Eppendorf tubes that were frozen in liquid nitrogen and stored at -80 °C. […] Tissues were homogenized in 100 μl of ice-cold 0.2 M perchloric acid containing 1 μM dihydroxybenzylamine (DHBA) as an internal standard and centrifuged at 10,000×g for 10 min at 4 °C. The supernatant was filtered through a 0.2 μm nitrocellulose membrane, and an aliquot (10 μl) was injected from a temperature-controlled (4 °C) automatic sample injector (Waters 717plus Autosampler) connected to a Waters 515 HPLC pump. Catecholamines were separated on a C18 reverse-phase column ([…]; Waters […] 25 cm×4.6 mm; 5 μm), electrochemically detected (Waters 464 Pulsed Electrochemical Detector; range 10 nA, potential +0.7 V), and analyzed using Millennium software. […] A flow rate of 1 ml/min was used. […] The recovery of each analyte was adjusted with respect to the internal standard and quantified from a standard curve. The levels of dopamine and its metabolites, DOPAC and HVA, were calculated from the AUC values for each (based on microgram per gram (μg/g) tissue wet weight) and expressed as a percent of the saline control.

extracellular dopamine = assay: In vivo microdialysis of dopamine and DOPAC in striatum and prefrontal cortex; settings: rats
Procedure: On the day of the experiment (24–48 h after surgery), the microdialysis probes of each animal were connected via the use of flexible PEEK tubing to a microperfusion pump (Harvard Apparatus, PHD 2000 Holliston, MA). Artificial CSF, composed of 147 mM NaCl, 3 mM KCl, 1.2 mM CaCl2, and 1.2 mM MgCl2 was used to perfuse the probes (1.5 μl/min) beginning at 75 min prior to drug treatment. Baseline dialysate collection was begun for all rats 60 min prior to drug administration (t=−60 min) such that a total of […] were collected prior to drug treatment (t=0). […] A control group of rats (N=9) received only the 0.5 % methylcellulose vehicle solution, delivered orally (p.o.). All drug solutions were delivered in a volume of 1 ml/kg of body weight. Every 20 min for the following 3 h, dialysate was collected from both brain regions of each rat. Dialysates were collected into mini-vials containing 7.5 μl of 0.02 M formic acid using an automated fraction collector Univentor 820, Malta. Tubes containing dialysate samples were then frozen at −80 °C until analyzed by HPLC for levels of dopamine and the dopamine metabolite, DOPAC. […] Coronal sections were prepared of each rat brain to verify the position of the dialysis collection probes. Dopamine and DOPAC concentrations were determined in each sample using HPLC separation and electrochemical detection. An aliquot (20 μl) of each dialysate sample was injected onto the HPLC column by means of a refrigerated microsampler system, consisting of a syringe pump (Gilson, model 402), a multi-column injector (Gilson, model 233 XL), and a temperature regulator (Gilson, model 832). The chromatographic separation was performed on a reverse-phase 150 ×2.1 mm (3 μm) C18 Thermo BDS Hypersil column (Keystone Scientific). […] The mobile phase was run at a flow rate of 0.35 ml/min using an HPLC pump (Shimadzu, model LC-10AD vp). Dopamine and DOPAC were electrochemically detected using a potentiostat (Antec Leyden, model Intro) fitted with a glassy carbon electrode set a +500 mV versus Ag/AgCl (Antec, Leyden). Data were analyzed using Chromatography Data System software (Shimadzu, Class-VP, Japan) using an external standard method to quantify concentrations of dopamine and DOPAC. […] Drug effects were expressed as percentages of basal level (mean±SEM) within the same subject. Statistical analysis was performed using Sigmastat for Windows (SPSS Corporation). Drug effects were compared with baseline and vehicle control using a two-way ANOVA for repeated measurements followed by the Newman–Keuls post hoc test. […] For all tests, the level of statistical significance was set at p<0.05.

[3] = system: D-AMPH-induced hyperactivity; assay: Inhibition of D-amphetamine-induced hyperactivity; format: in vivo; settings: rats, p.o.; D-AMPH 1 mg/kg i.p.; distance traveled over 2 h
Procedure: Male Sprague–Dawley rats (200–250 g, N=4/treatment group) were habituated to Lucite locomotor activity chambers comprising an AccuScan activity monitoring system (AccuScan Instruments, Inc., Columbus, OH) were maintained in a quiet observation room kept under low light conditions. […] The rats were briefly removed from the activity chambers 60 min later to receive an injection of D-amphetamine hydrochloride (D-AMPH; 1 mg/kg in 1 ml/kg, i.p.). The animals were returned to the activity chambers, and locomotor activity was then recorded for 2 h using system software. Activity was quantitated as distance traveled (cm) over 2 h for each group. Inhibitory activity was calculated as the percent of total activity observed at each dose level of each drug versus animals receiving D-AMPH alone. An ID50 for inhibition of D-AMPH-induced hyperactivity was calculated for each compound.

forelimb catalepsy = assay: Forelimb catalepsy, bar grip test; settings: mice, 3 mg/kg p.o.; each time point (120-360 min); vs vehicle
Procedure: Forelimb catalepsy was measured using the bar grip test. Mice were placed in a Lucite mouse cage outfitted with a 3-mm diameter wooden rod suspended 4 cm from the floor of the cage. During testing, the mouse was allowed to grip the bar firmly with hind legs placed firmly on the floor of the cage. The mouse was required to maintain this posture for at least 10 s for a valid test session. Catalepsy was then quantitated by recording the latency (in seconds) to step both front paws down to the floor of the cage up to a maximum time of 120 s. If the mouse stepped off the bar immediately (less than 10 s), another attempt was made up to a maximum of ten attempts. The longest duration of immobility was recorded if none of the ten attempts were beyond 10 s. Catalepsy was measured for each mouse at 2, 3, 4, and 6 h after drug administration. Mean forelimb catalepsy time (in seconds) was calculated across each group and time point. Data were analyzed using ANOVA with Newman–Keuls post hoc test.

[4] = system: GluN2B phosphorylated at tyrosine (Y) 1472; assay: GluN2B Y1472 phosphorylation state in nucleus accumbens; format: in vivo; settings: mice, 1 mg/kg p.o., 120 min after administration
Procedure: Brains were rapidly removed from the skull. […] Brain tissue was prepared for SDS-PAGE as described above, and protein homogenates (15 μg) were separated on 3-7 % gradient gels, and proteins transferred to nitrocellulose membranes. Portions of each membrane were immunoblotted for GluN2B phosphorylated at […] (rabbit polyclonal) and total GluN2B (mouse monoclonal) (Thermo Fisher Scientific, Rockford, IL).

[5] = 3 mg/kg p.o. once daily 21 days
[6] = 30 mg/kg p.o. once daily 21 days
[7] = 1 mg/kg p.o. once daily 21 days
[8] = 10 mg/kg p.o. once daily 21 days

Row | Effect on TH phosphorylation at S40 in striatum [1] | SMILES | DOPAC/DA, chronic (21 day) dosing, mean [2, 5] | HVA/DA, chronic (21 day) dosing, mean [2, 5] | DOPAC/DA, acute (2 h) dosing, mean ([2]; 3 mg/kg p.o. once) | HVA/DA, acute (2 h) dosing, mean ([2]; 3 mg/kg p.o. once) | ID50, inhibition of D-AMPH-induced hyperactivity [3] [mg/kg] | DOPAC/DA, chronic (21 day) dosing, mean [2, 7] | HVA/DA, chronic (21 day) dosing, mean [2, 7] | DOPAC/DA, acute (2 h) dosing, mean ([2]; 1 mg/kg p.o. once) | HVA/DA, acute (2 h) dosing, mean ([2]; 1 mg/kg p.o. once) | other results
1 | did not significantly affect | CN1CCN(C2=Nc3cc(Cl)ccc3Nc3ccccc32)CC1 [Clozapine] |  |  |  |  |  |  |  |  |  | 
2 | did not significantly affect | O=C1CCc2ccc(OCCCCN3CCN(c4cccc(Cl)c4Cl)CC3)cc2N1 [Aripiprazole] | 8.27 ^*, ^** | 12.14 ^* | 8.57 | 12.63 | 4.65 |  |  |  |  | DOPAC/DA, chronic (21 day) dosing, mean [2, 6]: 7.25 ^*, ^**; HVA/DA, chronic (21 day) dosing, mean [2, 6]: 12.32 ^*; DOPAC/DA, acute (2 h) dosing, mean ([2]; 30 mg/kg p.o. once): 11.89; HVA/DA, acute (2 h) dosing, mean ([2]; 30 mg/kg p.o. once): 11.20; DA or DOPAC efflux in striatum or mPFC (extracellular dopamine; 30 mg/kg p.o.): did not significantly affect
3 | significantly increase | O=C(CCCN1CCC(O)(c2ccc(Cl)cc2)CC1)c1ccc(F)cc1 [Haloperidol] | 17.00 ^*, ^**, ^*** | 24.15 ^*, ^**, ^*** | 22.68 ^*, ^**, ^*** | 28.14 ^*, ^**, ^*** | 0.04 | 18.26 ^*, ^**, ^*** | 29.23 ^*, ^**, ^*** | 19.69 ^*, ^**, ^*** | 31.04 ^*, ^**, ^*** | Forelimb catalepsy, bar grip test (forelimb catalepsy): profound forelimb catalepsy; DA and DOPAC efflux in striatum (extracellular dopamine; 0.3 mg/kg s.c., p<0.001 vs vehicle): significant increase; DA and DOPAC levels in mPFC (extracellular dopamine; 0.3 mg/kg s.c., p<0.01 (DA), p<0.001 (DOPAC) vs vehicle): elevated; GluN2B phosphorylation at Y1472 in nucleus accumbens [4]: 177±28 % of control

Row | SMILES | Effect on TH phosphorylation at S40 in striatum [1] | DOPAC/DA, chronic (21 day) dosing, mean [2, 5] | HVA/DA, chronic (21 day) dosing, mean [2, 5] | DOPAC/DA, acute (2 h) dosing, mean ([2]; 3 mg/kg p.o. once) | HVA/DA, acute (2 h) dosing, mean ([2]; 3 mg/kg p.o. once) | ID50, inhibition of D-AMPH-induced hyperactivity [3] [mg/kg] | DOPAC/DA, chronic (21 day) dosing, mean [2, 7] | HVA/DA, chronic (21 day) dosing, mean [2, 7] | DOPAC/DA, acute (2 h) dosing, mean ([2]; 1 mg/kg p.o. once) | HVA/DA, acute (2 h) dosing, mean ([2]; 1 mg/kg p.o. once) | other results
4 | Cc1cc2c(s1)Nc1ccccc1N=C2N1CCN(C)CC1 [Olanzapine] | significantly increase |  |  |  |  |  |  |  |  |  | 
5 | Cc1nc2n(c(=O)c1CCN1CCC(c3noc4cc(F)ccc34)CC1)CCCC2 [Risperidone] | significantly increase |  |  |  |  | 0.33 | 16.35 ^*, ^**, ^*** | 29.37 ^*, ^**, ^*** | 14.35 ^*, ^**, ^*** | 30.71 ^*, ^**, ^*** | DOPAC/DA, chronic (21 day) dosing, mean [2, 8]: 25.12 ^*, ^**, ^***; HVA/DA, chronic (21 day) dosing, mean [2, 8]: 36.39 ^*, ^**, ^***; DOPAC/DA, acute (2 h) dosing, mean ([2]; 10 mg/kg p.o. once): 30.98 ^*, ^**, ^***; HVA/DA, acute (2 h) dosing, mean ([2]; 10 mg/kg p.o. once): 23.06 ^*, ^**, ^***

From PMC4302236, “Functional profile of a novel modulator of serotonin, dopamine, and glutamate neurotransmission” (Psychopharmacology, 2014)
